In patent US12319672B2, “Alpha-D-galactopyranoside derivatives” (Idorsia Pharmaceuticals Ltd, priority 2019, dated 2025) one finds IC50 data, which are given here for 41 compounds.

For one assay, the target named is human Gal-3 (hGal-3) (Homo sapiens (Human), UniProt P17931). As to the kind of experiment: Competitive binding assay: binding of biotinylated hGal-3 to microplate-adsorbed asialofetuin (ASF). To be noted: Activity on hGal-3; mean values of several measurements. In outline: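 Compounds in DMSO dilution series competed with 300-1000 ng/mL biotinylated hGal-3 for asialofetuin adsorbed on the plate (3 h, 4° C). Streptavidin-peroxidase at 80 ng/mL (1 h, 4° C) with ABTS gave a spectrophotometric read-out, and IC50 was reported as the mean of repeat runs.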

The target of a further assay is human Gal-1 (hGal-1). Nature of the assay: Competitive binding assay: binding of biotinylated hGal-1 to microplate-adsorbed asialofetuin (ASF). To be noted: Activities on hGal-1; mean values of several measurements. The essentials: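 For hGal-1, a variant with all six cysteines replaced by serines is preferred. Either galectin, biotinylated at 300-1000 ng/mL, competes with compound for microplate-bound ASF over 3 h at 4° C; peroxidase/ABTS detection gives IC50, averaged.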

The structures appear in SMILES notation. Where only a bound is given, the exact number is not on record here.

human Gal-1 (hGal-1), sequence (P09382 2-135 limits assumed): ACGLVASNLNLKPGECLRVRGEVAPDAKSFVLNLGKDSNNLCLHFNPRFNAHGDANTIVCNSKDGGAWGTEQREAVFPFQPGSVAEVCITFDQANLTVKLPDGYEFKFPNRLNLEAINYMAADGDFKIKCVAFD
human Gal-3 (hGal-3), sequence (P17931 whole entry): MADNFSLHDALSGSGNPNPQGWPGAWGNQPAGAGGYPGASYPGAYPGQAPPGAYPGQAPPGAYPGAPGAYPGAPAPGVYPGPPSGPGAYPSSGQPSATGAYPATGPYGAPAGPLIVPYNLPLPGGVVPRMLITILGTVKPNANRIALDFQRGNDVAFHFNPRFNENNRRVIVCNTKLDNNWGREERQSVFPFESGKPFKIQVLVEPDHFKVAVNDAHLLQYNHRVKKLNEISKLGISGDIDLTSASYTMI

For the compound `O=c1[nH]c2ccc(C3=NOC(C[C@H]4O[C@H](CO)[C@H](O)[C@H](n5cc(-c6cc(F)c(F)c(F)c6)nn5)[C@H]4O)C3)cc2o1` (stereo partly shown) [Ex 1.21], the figures for the concentration for half-maximal inhibition (IC50) on human Gal-3 (hGal-3) and at human Gal-1 (hGal-1) were 150 nM and 4770 nM, respectively.
In the same order, the values of `OC[C@H]1O[C@H](CC2CC(C3CCOCC3)=NO2)[C@H](O)[C@@H](n2cc(-c3cc(F)c(F)c(F)c3)nn2)[C@H]1O` (stereo partly shown) [Ex 1.22] are 430 nM and 4480 nM.
In the same order, the values of `COc1ccc(C2=NOC(C[C@H]3O[C@H](CO)[C@H](O)[C@H](n4cc(-c5cc(F)c(F)c(F)c5)nn4)[C@H]3O)C2)cn1` (stereo partly shown) [Ex 1.23] are 700 nM and 6800 nM.
The corresponding values for `COc1cc(C2=NOC(C[C@H]3O[C@H](CO)[C@H](O)[C@H](n4cc(-c5cc(F)c(F)c(F)c5)nn4)[C@H]3O)C2)ccn1` (stereo partly shown) [Ex 1.24] are 800 nM and 13300 nM.
As for `COc1ccc(C2=NOC(C[C@H]3O[C@H](CO)[C@H](O)[C@H](n4cc(-c5cc(F)c(F)c(F)c5)nn4)[C@H]3O)C2)cc1O` (stereo partly shown) [Ex 1.25], the IC50 on human Gal-3 (hGal-3) amounted to 670 nM; at human Gal-1 (hGal-1), 4970 nM.
The corresponding values for `OC[C@H]1O[C@H](CC2CC(c3ccc4[nH]cnc4c3)=NO2)[C@H](O)[C@@H](n2cc(-c3cc(F)c(F)c(F)c3)nn2)[C@H]1O` (stereo partly shown) [Ex 1.26] are 1150 nM and 17500 nM.
The corresponding values for `OC[C@H]1O[C@H](CC2CC(c3cn[nH]c3)=NO2)[C@H](O)[C@@H](n2cc(-c3cc(F)c(F)c(F)c3)nn2)[C@H]1O` (stereo partly shown) [Ex 1.27] are 410 nM and 6540 nM.
The corresponding values for `Cn1c(=O)[nH]c2cc(C3=NOC(C[C@H]4O[C@H](CO)[C@H](O)[C@H](n5cc(-c6cc(F)c(F)c(F)c6)nn5)[C@H]4O)C3)ccc21` (stereo partly shown) [Ex 1.28] are 470 nM and 18900 nM.
As for `CO[C@@H]1[C@@H](n2cc(-c3cc(F)c(F)c(F)c3)nn2)[C@@H](O)[C@@H](CO)O[C@@H]1C[C@H]1CC(c2ccc3[nH]c(=O)oc3c2)=NO1` [Ex 1.29], the results for the IC50 at human Gal-3 (hGal-3) and at human Gal-1 (hGal-1) were 2140 nM and more than 100000 nM, respectively.
Consider `CO[C@@H]1[C@@H](n2cc(-c3cc(F)c(F)c(F)c3)nn2)[C@@H](O)[C@@H](CO)O[C@@H]1C[C@@H]1CC(c2ccc3[nH]c(=O)oc3c2)=NO1` [Ex 1.30], for which the results for the IC50 at human Gal-3 (hGal-3) and at human Gal-1 (hGal-1) were 330 nM and 3090 nM, respectively.
The corresponding values for `O=c1[nH]c2ccc(C3=NO[C@@H](C[C@H]4O[C@H](CO)[C@H](O)[C@H](n5cc(-c6cc(F)c(F)c(F)c6)nn5)[C@H]4O)C3)cc2o1` [Ex 1.31] are 1130 nM and 13500 nM.
The corresponding values for `O=c1[nH]c2ccc(C3=NO[C@@H](C[C@H]4O[C@H](CO)[C@H](O)[C@H](n5cc(-c6cc(F)c(F)c(F)c6)nn5)[C@H]4O)C3)cc2o1` [Ex 1.32] are 53 nM and 1150 nM.
The corresponding values for `OC[C@H]1O[C@H](CC2CC(c3ccc4cn[nH]c4c3)=NO2)[C@H](O)[C@@H](n2cc(-c3cc(F)c(F)c(F)c3)nn2)[C@H]1O` (stereo partly shown) [Ex 1.33] are 800 nM and 7940 nM.
On to `OC[C@H]1O[C@H](CC2CC(c3ccc4[nH]ncc4c3)=NO2)[C@H](O)[C@@H](n2cc(-c3cc(F)c(F)c(F)c3)nn2)[C@H]1O` (stereo partly shown) [Ex 1.34], for which the IC50 is 880 nM at human Gal-3 (hGal-3) and 10600 nM on human Gal-1 (hGal-1).
As to `OC[C@H]1O[C@H](CC2=NOC(C3CCCCC3)C2)[C@H](O)[C@@H](n2cc(-c3cc(F)c(F)c(F)c3)nn2)[C@H]1O` (stereo partly shown) [Ex 1.35], the IC50 on human Gal-3 (hGal-3) is 1000 nM; at human Gal-1 (hGal-1), 5580 nM.
The corresponding values for `OC[C@H]1O[C@H](CC2=NOC(Cc3ccccc3)C2)[C@H](O)[C@@H](n2cc(-c3cc(F)c(F)c(F)c3)nn2)[C@H]1O` (stereo partly shown) [Ex 1.36] are 2540 nM and 10900 nM.
`Cc1ncsc1C1CC(C[C@H]2O[C@H](CO)[C@H](O)[C@H](n3cc(-c4cc(F)c(F)c(F)c4)nn3)[C@H]2O)=NO1` (stereo partly shown) [Ex 1.37]: the IC50 was 440 nM at human Gal-3 (hGal-3) and 7700 nM on human Gal-1 (hGal-1).
With `OCCC1CC(C[C@H]2O[C@H](CO)[C@H](O)[C@H](n3cc(-c4cc(F)c(F)c(F)c4)nn3)[C@H]2O)=NO1` (stereo partly shown) [Ex 1.38], the IC50 turned out to be 1420 nM on human Gal-3 (hGal-3) and 15900 nM at human Gal-1 (hGal-1).
In the same order, the values of `CC(C)(O)C1CC(C[C@H]2O[C@H](CO)[C@H](O)[C@H](n3cc(-c4cc(F)c(F)c(F)c4)nn3)[C@H]2O)=NO1` (stereo partly shown) [Ex 1.39] are 710 nM and 9940 nM.
In the same order, the values of `CC(C)(C)OC(=O)N1CCC(c2cc(C[C@H]3O[C@H](CO)[C@H](O)[C@H](n4cc(-c5cc(F)c(F)c(F)c5)nn4)[C@H]3O)no2)CC1` [Ex 1.40] are 43 nM and 740 nM.
The corresponding values for `CC(C)(C)OC(=O)N1CCC(C2CC(C[C@H]3O[C@H](CO)[C@H](O)[C@H](n4cc(-c5cc(F)c(F)c(F)c5)nn4)[C@H]3O)=NO2)CC1` (stereo partly shown) [Ex 1.41] are 450 nM and 6290 nM.
As for `CC(C)(O)CC1CC(C[C@H]2O[C@H](CO)[C@H](O)[C@H](n3cc(-c4cc(F)c(F)c(F)c4)nn3)[C@H]2O)=NO1` (stereo partly shown) [Ex 1.42], the IC50 came out at 1060 nM at human Gal-3 (hGal-3) and 3610 nM on human Gal-1 (hGal-1).
Turning to `OCc1cc(C[C@H]2O[C@H](CO)[C@H](O)[C@H](n3cc(-c4cc(F)c(F)c(F)c4)nn3)[C@H]2O)no1` [Ex 1.43], the IC50 on human Gal-3 (hGal-3) was determined as 1900 nM; on human Gal-1 (hGal-1), 15800 nM.
The corresponding values for `CC(=O)O[C@@H]1[C@@H](n2cc(-c3cc(F)c(F)c(F)c3)nn2)[C@@H](O)[C@@H](CO)O[C@@H]1CC1CC(C2CCN(C(=O)OC(C)(C)C)CC2)=NO1` (stereo partly shown) [Ex 1.44] are 65 nM and 1710 nM.
In the same order, the values of `CC(C)(C)OC(=O)N1CCC(C2=NOC(C[C@H]3O[C@H](CO)[C@H](O)[C@H](n4cc(-c5cc(F)c(F)c(F)c5)nn4)[C@H]3O)C2)CC1` (stereo partly shown) [Ex 1.45] are 110 nM and 1020 nM.
In the same order, the values of `CO[C@@H]1[C@@H](n2cc(-c3cc(F)c(F)c(F)c3)nn2)[C@@H](O)[C@@H](CO)O[C@@H]1CC1CC(C2CCN(C(=O)OC(C)(C)C)CC2)=NO1` (stereo partly shown) [Ex 1.46] are 290 nM and 1000 nM.
Consider `CO[C@@H]1[C@@H](n2cc(-c3cc(F)c(F)c(F)c3)nn2)[C@@H](O)[C@@H](CO)O[C@@H]1C[C@H]1CC(C2CCN(C(=O)OC(C)(C)C)CC2)=NO1` [Ex 1.47], for which the IC50 on human Gal-3 (hGal-3) worked out at 660 nM; on human Gal-1 (hGal-1) it was 6540 nM.
In the same order, the values of `CO[C@@H]1[C@@H](n2cc(-c3cc(F)c(F)c(F)c3)nn2)[C@@H](O)[C@@H](CO)O[C@@H]1C[C@@H]1CC(C2CCN(C(=O)OC(C)(C)C)CC2)=NO1` [Ex 1.48] are 89 nM and 560 nM.
The corresponding values for `CC(=O)O[C@@H]1[C@@H](n2cc(-c3cc(F)c(F)c(F)c3)nn2)[C@@H](O)[C@@H](CO)O[C@@H]1Cc1cc(C2CCN(C(=O)OC(C)(C)C)CC2)on1` [Ex 1.49] are 78 nM and 2450 nM.
`CO[C@@H]1[C@@H](n2cc(-c3cc(F)c(F)c(F)c3)nn2)[C@@H](O)[C@@H](CO)O[C@@H]1Cc1cc(C2CCN(C(=O)OC(C)(C)C)CC2)on1` [Ex 1.50]: the IC50 at human Gal-3 (hGal-3) came out at 63 nM; on human Gal-1 (hGal-1) it was 570 nM.
In the same order, the values of `CC(C)(C)c1cc(C[C@H]2O[C@H](CO)[C@H](O)[C@H](n3cc(-c4cc(F)c(F)c(F)c4)nn3)[C@H]2O)no1` [Ex 1.51] are 150 nM and 2500 nM.
In the same order, the values of `OC[C@H]1O[C@H](Cc2cc(C3CC3)on2)[C@H](O)[C@@H](n2cc(-c3cc(F)c(F)c(F)c3)nn2)[C@H]1O` [Ex 1.52] are 500 nM and 7980 nM.
The corresponding values for `CC(C)(C)OC(=O)N1CC(c2cc(C[C@H]3O[C@H](CO)[C@H](O)[C@H](n4cc(-c5cc(F)c(F)c(F)c5)nn4)[C@H]3O)no2)C1` [Ex 1.53] are 350 nM and 2870 nM.
On to `CC(C)(C)OC(=O)N1CCCC(c2cc(C[C@H]3O[C@H](CO)[C@H](O)[C@H](n4cc(-c5cc(F)c(F)c(F)c5)nn4)[C@H]3O)no2)C1` (stereo partly shown) [Ex 1.54], for which the results for the IC50 on human Gal-3 (hGal-3) and at human Gal-1 (hGal-1) were 290 nM and 6480 nM, respectively.
The corresponding values for `CC(C)(C)OC(=O)N1CCC(c2cc(C[C@H]3O[C@H](CO)[C@H](O)[C@H](n4cc(-c5cc(F)c(F)c(F)c5)nn4)[C@H]3O)no2)C1` (stereo partly shown) [Ex 1.55] are 660 nM and 41900 nM.
In the case of `OC[C@H]1O[C@H](Cc2cc(C3CCCCC3)on2)[C@H](O)[C@@H](n2cc(-c3cc(F)c(F)c(F)c3)nn2)[C@H]1O` [Ex 1.56], the IC50 was found to be 340 nM on human Gal-3 (hGal-3) and 15200 nM on human Gal-1 (hGal-1).
In the same order, the values of `OC[C@H]1O[C@H](Cc2cc(C3CCCC3)on2)[C@H](O)[C@@H](n2cc(-c3cc(F)c(F)c(F)c3)nn2)[C@H]1O` [Ex 1.57] are 400 nM and 12500 nM.
Regarding `OC[C@H]1O[C@H](Cc2cc(C3(O)CCCC3)on2)[C@H](O)[C@@H](n2cc(-c3cc(F)c(F)c(F)c3)nn2)[C@H]1O` [Ex 1.58], the results for the IC50 at human Gal-3 (hGal-3) and at human Gal-1 (hGal-1) were 490 nM and 13600 nM, respectively.
For the compound `OC[C@H]1O[C@H](Cc2cc(C3(O)COC3)on2)[C@H](O)[C@@H](n2cc(-c3cc(F)c(F)c(F)c3)nn2)[C@H]1O` [Ex 1.59], the half-inhibitory concentration (IC50) on human Gal-3 (hGal-3) came to 400 nM; at human Gal-1 (hGal-1) it was 6310 nM.
In the same order, the values of `OC[C@H]1O[C@H](Cc2cc(C3CCOCC3)on2)[C@H](O)[C@@H](n2cc(-c3cc(F)c(F)c(F)c3)nn2)[C@H]1O` [Ex 1.60] are 290 nM and 6970 nM.
The corresponding values for `CC(C)(C)OC(=O)N1CCC(O)(c2cc(C[C@H]3O[C@H](CO)[C@H](O)[C@H](n4cc(-c5cc(F)c(F)c(F)c5)nn4)[C@H]3O)no2)CC1` [Ex 1.61] are 36 nM and 620 nM.
